What was measured:
[1] = system: wheat lines with S653(At)N mutation in AHASL1A; experiment: herbicide spray assay, greenhouse-grown mutagenized wheat lines; type: in vivo, Triticum aestivum; conditions: 0-9 rating scale (0=no injury; 9=highest injury); after spraying with imazamox; mutation in 1A
Experimental: (§1) The most common mutation observed in wheat results in a Ser to Asn substitution at the position equivalent to Ser653 in Arabidopsis (termed S653(At)N). Typically, 24 individuals from each mutagenized line were scored on a 0-9 rating scale (0=no injury; 9=highest injury) after spraying with a rate of imazamox sufficient for detecting differences in the greenhouse-grown plants (FIG. 4). For each line, the specific gene mutated was determined. A clear correlation was found between the ratings from herbicide spray assays and the specific homoeolog that was mutated at this position.

[2] = system: wheat lines with S653(At)N mutation in AHASL1B; experiment: as above; type: in vivo, Triticum aestivum; conditions: 0-9 rating scale (0=no injury; 9=highest injury); after spraying with imazamox; mutation in 1B
Experimental: as §1

[3] = system: wheat lines with S653(At)N mutation in AHASL1D; experiment: as above; type: in vivo, Triticum aestivum; conditions: 0-9 rating scale (0=no injury; 9=highest injury), after spraying with imazamox
Experimental: as §1

[4] = system: AHAS of S653(At)N mutant in AHASL1A; experiment: AHAS assay on extracts of S653(At)N mutants; type: biochemical, Triticum aestivum; conditions: 100 μM imazapyr, several backgrounds
Excerpt: (§2) The deletions, insertions, and substitutions of the protein sequences encompassed herein are not expected to produce radical changes in the characteristics of the protein. However, when it is difficult to predict the exact effect of the substitution, deletion, or insertion in advance of doing so, one skilled in the art will appreciate that the effect will be evaluated by routine screening assays. That is, AHASL function can be evaluated by AHAS enzyme activity assays in the presence and absence of an imidazolinone herbicide. See, for example, Singh et al. ((1988) Anal. Biochem. 171:173-179), herein incorporated by reference.
(§3) To obtain an understanding of the effect of each mutation on the level of enzyme sensitivity to the herbicides, AHAS assays were performed on S653(At)N mutants in all three genes using individuals from several backgrounds (representative data in FIG. 6A). […] Also, a double mutant between 1A and 1D retained 63% of AHAS activity (Pozniak et al. submitted). […] In durum wheat (T. turgidum) each homeolog appears to contribute equally to the AHAS pool (FIG. 6B).

[5] = system: AHAS of S653(At)N mutant in AHASL1B; experiment: AHAS assay on extracts of S653(At)N mutants; type: biochemical, Triticum aestivum
Excerpt: as §2, §3

[6] = system: AHAS of S653(At)N mutant in AHASL1D; experiment: AHAS assay on extracts of S653(At)N mutants; type: biochemical, Triticum aestivum
Excerpt: as §2, §3

[7] = system: AHAS of double mutant between 1A and 1D; conditions: herbicide not restated, follows the 100 μM imazethapyr sentence; cited from earlier work

COCc1cnc(C2=NC(C)(C(C)C)C(=O)N2)c(C(=O)O)c1 (stereo not drawn) [imazamox]
median injury [1]: 6.4
median injury [2]: 5.4
median injury [3]: 4.0

CC(C)C1(C)N=C(c2ncccc2C(=O)O)NC1=O (stereo not drawn) [imazapyr]
AHAS activity in the presence of herbicide [4]: 33%
AHAS activity in the presence of herbicide ([5]; 100 μM imazapyr, AHASL1B S653(At)N mutant, several backgrounds): 25%
AHAS activity in the presence of herbicide (level of insensitivity) ([6]; 100 μM imazapyr, AHASL1D S653(At)N mutant, several backgrounds): 38%

CCc1cnc(C2=NC(C)(C(C)C)C(=O)N2)c(C(=O)O)c1 (stereo not drawn) [imazethapyr]
AHAS activity in the presence of herbicide ([5]; 100 μM imazethapyr, AHAS1B mutant extract, CDC Teal background): 30%
AHAS activity in the presence of herbicide ([6]; 100 μM imazethapyr, AHAS1D mutant extract, CDC Teal background): 40%
AHAS activity retained [7]: 63%

Source: patent US20060010514A1, “Polynucleotides encoding mature AHASL proteins for creating imidazolinone-tolerant plants” (BASF Plant Science GmbH, priority 2004, published 2006)
